Reference: publication PMC11170107, “Development of a new hazard scoring system in primary neuronal cell cultures for drug-induced acute neuronal toxicity identification in early drug discovery” (Frontiers in Pharmacology, 2024)

Tests used:
[1] = established from VigiBase, SIDER, Elsevier drug information and FDA prescribing information
[2] = Supplementary Table S1; cited from earlier work
[3] = WHO adverse drug reactions VigiBase; ref Kumlien and Lundberg, 2010; cited from earlier work
[4] = seizure ADR frequency in SIDER; ref Campillos et al., 2008; Kuhn et al., 2010; cited from earlier work
[5] = ref National library of medicine, Daylimed; cited from earlier work
[6] = system: rat primary cortical neurons; assay: MEA hazard scoring in rat primary cortical neuronal cultures; details: for hazard classification in the hazard scoring system: rat primary neurons on MEA; for Area.Under.Cross.Correlation Lower.TI / Area.Under.Cross.Correlation Upper.TI / Burst.Duration...Avg.(s. Lower.TI) / Burst.Duration...Avg.(s. Upper.TI) / Mean.Firing.Rate..Hz. Lower.TI / Mean.Firing.Rate..Hz. Upper.TI / Median.Mean.ISI Lower.TI / Median.Mean.ISI Upper.TI: statistical tolerance interval of the ΔΔ% effect, One-sided interval
Method: At DIV28, spontaneous neuronal activity obtained for 30 min in culture solution was defined as the baseline.
Data analysis was captured using AxIs suite software (Axion Biosystems Inc., version 3.6.2) and further analyzed using GraphPad Prism (version 9.00; GraphPad Software Inc., San Diego, CA). […] An active well should have more than 40% active electrodes. All wells below this threshold were discarded upon these quality criteria. For the downstream statistical analysis, the data on each MEA parameter was first expressed as the ratio of exposed wells (percentage change between baseline and the treatment) and then normalized to the average of the control within the same plate. i.e., Baseline corrected ratios of n= 7 or eight wells were averaged per condition. Each well of the MEA served as its own control, and the changes in the electrical activity elicited by the treatments were expressed as a percentage of that control activity and normalized to the wells treated with the vehicle control dimethyl sulfoxide (DMSO). […] Differences were determined using the non-parametric Wilcoxon Mann Whitney test; p-values below 0.05 were considered significant. Data are expressed as means ± S.E.M.
Thereafter, based on the effects of vehicles and positive controls, we determined the cut-off points between the different effect zones according to the key parameters selected as described in the previous subsection. The zones were defined as follows. The “no effect” zone reflects parameter changes that are most likely within vehicle variability. The “mild” and “strong” zones are differentiated bidirectionally showing mild and strong effects.
The respective hazard class was determined by a cumulative scoring of individual parameters using a scoring matrix, which was based on the following three fundamental components: (1) selection of the six key relevant parameters, (2) defining the cutoffs for the level of effect, and (3) defining weighted points per parameter for the level of hazard potential. The scoring matrix concluded with the addition of a weighted point algorithm to discriminate distinct degrees of neuronal hazard. […] The weighted points were defined on the importance of a parameter (and the direction of effect), as well as the identification of an expected hazard for different pharmacological modes of action. The overall hazard score is derived from the sum of all weighted parameters, which could be converted into a specific hazard label. The weighted points and total score range associated with the various hazard labels were optimized using an iterative process.

Compound | Classification* (degree of seizure risk) [1] | Free Cmax highest [2] [nM] | Percentage seizures of total number of ADRs [3] [%] | SIDER ADR on-/off-label [4] | FDA prescription information at therapeutic dose (Convulsion/ Seizure/Lower the seizure threshold/withdrawal) [5] | other results
CNS(=O)(=O)Cc1ccc2[nH]cc(CCN(C)C)c2c1 [Sumatriptan] | Risk | 388 | 0.8281 | rare (<0.1%) | On label | –
O=C(CCCl)NCc1ccccc1 [Beclamide] | Low risk | – | 0 | – | – | hazard classification in the hazard scoring system [6]: high hazard
CC(C)C[C@H]1C(=O)N2CCC[C@H]2[C@]2(O)O[C@](NC(=O)[C@@H]3C=C4c5cccc6[nH]c(Br)c(c56)C[C@H]4N(C)C3)(C(C)C)C(=O)N12 [Bromocriptine] | Risk | 1.4 | 3.063 | postmarketing | On label | –
COc1cc(C(C)=O)ccc1OCCCN1CCC(c2noc3cc(F)ccc23)CC1 [Iloperidone] | Low risk | 12 | 1.653 | not found on label | not found on label | –
FC(F)(F)c1ccc(CNc2ccc(Cc3c[nH]c4ncc(Cl)cc34)cn2)cn1 [Pexidartinib] | Risk | 100 | 0.5386 | – | not found on label | –
CNC1(c2ccccc2Cl)CCCCC1=O (stereo not shown) [Ketamine] | Low risk | 1740 | 1.967 | no frequency information | not found on label | –
Nc1nnc(-c2cccc(Cl)c2Cl)c(N)n1 [Lamotrigine] | Risk | 8600 | 7.325 | 1.9% - 4% | On label | –
NCc1cc(=O)[nH]o1 [Muscimol] | Risk | – | – | – | – | Area.Under.Cross.Correlation Lower.TI [6]: -100; Area.Under.Cross.Correlation Upper.TI [6]: -21.99; Burst.Duration...Avg.(s. Lower.TI) [6]: -100; Burst.Duration...Avg.(s. Upper.TI) [6]: 465.5; Mean.Firing.Rate..Hz. Lower.TI [6]: -100; Mean.Firing.Rate..Hz. Upper.TI [6]: -23.34; Median.Mean.ISI Lower.TI [6]: -100; Median.Mean.ISI Upper.TI [6]: 1.885
CCN(CC)C(=O)/C(C#N)=C/c1cc(O)c(O)c([N+](=O)[O-])c1 [Entacapone] | Risk | 130 | 0.4204 | no frequency information | not found on label | –
CN1[C@@H]2CC[C@H]1C[C@@H](OC(=O)c1c[nH]c3ccccc13)C2 [Tropisetron] | No risk | 80 | 1.067 | not found on label | – | –
O=C1Nc2ccc(Cl)cc2C(c2ccccc2Cl)=NC1O (stereo not shown) [Lorazepam] | Risk | 22 | 1.949 | postmarketing — 0.769% | on label | –
CNCCC(Oc1ccc(C(F)(F)F)cc1)c1ccccc1 (stereo not shown) [Fluoxetine] | Risk | 470 | 1.97 | uncommon | On label | –
Cc1ccc(Nc2nccc(N(C)c3ccc4c(C)n(C)nc4c3)n2)cc1S(N)(=O)=O [pazopanib] | Risk | 1330 | 0.4565 | not found on label | not found on label | –
NC(=O)OCC(COC(N)=O)c1ccccc1 [Felbamate] | Low risk | 181000 | 9.4112 | not found on label | on label | –
Picrotoxin | Risk | – | – | – | – | Area.Under.Cross.Correlation Lower.TI [6]: -46.52; Area.Under.Cross.Correlation Upper.TI [6]: 62.45; Burst.Duration...Avg.(s. Lower.TI) [6]: -2.013; Burst.Duration...Avg.(s. Upper.TI) [6]: 280.4; Mean.Firing.Rate..Hz. Lower.TI [6]: -10.62; Mean.Firing.Rate..Hz. Upper.TI [6]: 76.43; Median.Mean.ISI Lower.TI [6]: -29.71; Median.Mean.ISI Upper.TI [6]: 0.6132
CN1CCN(C2=Nc3ccccc3Oc3ccc(Cl)cc32)CC1 [Loxapine] | Risk | 44 | 1.962 | no frequency information | On label | –
CS(=O)(=O)c1ccc(C2=C(c3ccccc3)C(=O)OC2)cc1 [Rofecoxib] | No risk | 130 | 1.2136 | not found on label | – | –
N=C(N)NC(=O)c1nc(Cl)c(N)nc1N [Amiloride] | No risk | 74.6 | 0.3506 | not found on label | not found on label | hazard classification in the hazard scoring system [6]: high seizure risk; firing rate (weighted mean firing rate) in MEA recordings ([6]; rodent cortical neurons in vitro): increase of activity
NC(=O)C[S+]([O-])C(c1ccccc1)c1ccccc1 (stereo not shown) [Modafinil] | Risk | 19600 | 1.739 | postmarketing | not found on label | –
CC(=O)Oc1ccccc1C(=O)O [Aspirin] | No risk | 43400 | 0.216 | not found on label | not found on label | –
Cc1ccc(C(=O)c2cc(O)c(O)c([N+](=O)[O-])c2)cc1 [Tolcapone] | No risk | 10 | 0.8264 | not found on label | not found on label | –
C[N+](C)(C)CCOC(=O)CCC(=O)OCC[N+](C)(C)C [Succinylcholine] | No risk | 170 | 0.792 | not found on label | not found on label | –
